Numbered stars: 1 amine (or outer) side, 2 acyl side, 3 side chain; on linkers, the order of the positions; unused ones are H or OH. Square brackets hold non-standard residues; d marks the D form. Peptide text beside a SMILES is read from it. * marks the point of attachment. X1 = CC(C)C[C@H](N[*:1])C(O)C[C@@H](C)C(=O)[*:2]; X2 = C[C@H](N[*:1])C(=O)C(F)(F)C(=O)[*:2]; Sta = CC(C)C[C@H](N)[C@@H](O)CC(=O)O; Nva = CCC[C@H](N)C(=O)O; Cbz = O=C(OCc1ccccc1)*; Boc = CC(C)(C)OC(=O)*
What was measured:
Beta-secretase (BACE) [1] = target: T1, Beta-secretase (BACE) (Homo sapiens, UniProt Q9Y5Z0+P56817); experiment: Inhibition of beta-secretase activity; format: protein assay
[2] = target: Gamma-secretase subunit PEN-2 (Homo sapiens, UniProt Q9NZ42); experiment: Inhibition of Amyloid-beta production in APP-transfected cells at level of gamma secretase; format: functional, cell-based
Gamma-secretase subunit PEN-2, sequence (Q9NZ42 whole entry): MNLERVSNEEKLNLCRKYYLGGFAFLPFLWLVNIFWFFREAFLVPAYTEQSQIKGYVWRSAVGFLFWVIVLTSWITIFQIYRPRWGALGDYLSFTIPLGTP

Beta-secretase 1 = Beta-secretase 1 (Homo sapiens, UniProt P56817); experiment: Inhibition of human recombinant beta-secretase
Beta-secretase 1, sequence (P56817 whole entry): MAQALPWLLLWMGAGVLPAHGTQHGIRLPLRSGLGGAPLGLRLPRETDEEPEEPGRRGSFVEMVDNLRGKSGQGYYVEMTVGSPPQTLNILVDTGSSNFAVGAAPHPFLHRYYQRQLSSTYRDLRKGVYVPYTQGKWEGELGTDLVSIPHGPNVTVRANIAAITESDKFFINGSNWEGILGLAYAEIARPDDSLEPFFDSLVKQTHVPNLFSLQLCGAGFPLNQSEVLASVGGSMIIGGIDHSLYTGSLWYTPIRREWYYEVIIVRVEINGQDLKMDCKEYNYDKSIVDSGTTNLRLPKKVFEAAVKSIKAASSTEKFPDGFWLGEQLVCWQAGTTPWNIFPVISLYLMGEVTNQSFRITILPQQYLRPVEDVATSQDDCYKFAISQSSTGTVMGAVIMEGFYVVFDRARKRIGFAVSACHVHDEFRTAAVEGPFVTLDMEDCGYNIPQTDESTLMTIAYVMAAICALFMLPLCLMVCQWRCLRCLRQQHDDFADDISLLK

Beta-secretase (BACE) [3] = target: T1, Beta-secretase (BACE); experiment: In vitro inhibition of beta-secretase was evaluated; format: protein assay

An IC50 (Beta-secretase (BACE) [1]) of 0.3 µM was found for CC(C)C[C@H](NC(=O)[C@H](Cc1ccccc1)C[C@@H](O)[C@H](Cc1ccccc1)NC(=O)OC(C)(C)C)C(=O)N[C@@H](Cc1ccccc1)C(N)=O in this work.

An IC50 [2] of 200 µM was found for CCC[C@@H](C=O)NC(=O)[C@H](CC(C)C)NC(=O)[C@H](CC(C)C)NC(C)=O (Ac-Leu-Leu-[Nva]-aldehyde) in this work.

An IC50 [2] of 13 µM was found for CC[C@H](C)[C@H](NC(=O)[C@@H](NC(=O)OC(C)(C)C)C(C)C)C(=O)N[C@@H](C)C(=O)C(F)(F)C(=O)N[C@H](C(=O)N[C@H](C(=O)OC)[C@@H](C)CC)C(C)C (Boc-VI[X2]VI-OMe) in this work.

An IC50 [2] of 200 µM was found for CCC[C@@H](C=O)NC(=O)[C@H](CC(C)C)NC(=O)OCc1ccccc1 (Cbz-Leu-[Nva]-aldehyde) in this work.

A Ki (Beta-secretase 1) of 0.01 µM was found for CC(C)C[C@H](NC(=O)[C@H](CC(N)=O)NC(=O)[C@@H](NC(=O)[C@@H](N)CC(=O)O)C(C)C)C(O)C[C@@H](C)C(=O)N[C@@H](C)C(=O)N[C@@H](CCC(=O)O)C(=O)N[C@@H](Cc1ccccc1)C(=O)O (stereo partly drawn) (H-DVN[X1]AEF-OH) in this work.

An IC50 (Beta-secretase (BACE) [3]) of 0.03 µM was found for CC[C@H](C)[C@H](NC(=O)[C@H](CCC(=O)O)NC(=O)[C@H](CCC(=O)O)NC(=O)[C@@H](NC(=O)[C@@H](N)CCCCN)[C@@H](C)O)C(=O)N[C@@H](CO)C(=O)N[C@@H](CCC(=O)O)C(=O)N[C@H](C(=O)N[C@@H](CC(N)=O)C(=O)N[C@@H](CC(C)C)[C@@H](O)CC(=O)N[C@H](C(=O)N[C@@H](C)C(=O)N[C@@H](CCC(=O)O)C(=O)N[C@@H](Cc1ccccc1)C(=O)O)C(C)C)C(C)C (H-KTEEISEVN[Sta]VAEF-OH) in this work.

A Ki (Beta-secretase 1) of 0.068 µM was found for CC(C)C[C@H](NC(=O)[C@H](CC(N)=O)NC(=O)[C@@H](N)C(C)C)C(O)C[C@@H](C)C(=O)N[C@@H](C)C(=O)N[C@@H](CCC(=O)O)C(=O)N[C@@H](Cc1ccccc1)C(=O)O (stereo partly drawn) (H-VN[X1]AEF-OH) in this work.

An IC50 [2] of 200 µM was found for CC(C)C[C@@H](C=O)NC(=O)[C@H](CC(C)C)NC(=O)[C@H](CC(C)C)NC(=O)OCc1ccccc1 [MG-132] (Cbz-Leu-Leu-Leu-aldehyde) in this work.

From ChEMBL document CHEMBL1134505, “Secretase targets for Alzheimer's disease: identification and therapeutic potential” (J Med Chem, 2001)
